# Earlier results in patent US9255156B2, “Immunogenic synthetic glycoconjugate for the immunotherapy of melanoma” (Azienda Ospedaliero-Universitaria Careggi, priority 2009, dated 2016).
substance,measurement,value
GM3 lactone [GM3 lactone 2],stability under physiological conditions / hydrolytic stability,unstable under physiological conditions
